Test results: patent US7902252B2, “Inhibitors of D-amino acid oxidase” (Sepracor, Inc., priority 2007, dated 2011)

Columns and labels:
[1] = tested on: D-serine levels in the cerebellum; assay: In vivo elevation of D-serine levels in the cerebellum; set-up: species or system Mice (C57BL/6); details: mice, intraperitoneal;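 note: Cutoffs are cerebellum D-serine in nmol/g wet tissue weight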
Description: […] Animals are sacrificed at either 2 or 6 h post compound administration with an N=3 per time point. At sacrifice, trunk blood is collected into tubes containing potassium EDTA, which are then centrifuged to permit isolation of plasma. The cerebellum is dissected from each animal. Plasma and cerebellum samples are stored at −80° C. until samples are analyzed (LC/MS/MS).

Human DAAO = Human DAAO (Homo sapiens, UniProt P14920); assay: D-Amino Acid Oxidase enzyme assay (D-serine, horseradish peroxidase/Amplex Red coupled fluorescence); format: biochemical; details: D-serine 5 mM, pH 7.4
Human DAAO, sequence (P14920 whole entry): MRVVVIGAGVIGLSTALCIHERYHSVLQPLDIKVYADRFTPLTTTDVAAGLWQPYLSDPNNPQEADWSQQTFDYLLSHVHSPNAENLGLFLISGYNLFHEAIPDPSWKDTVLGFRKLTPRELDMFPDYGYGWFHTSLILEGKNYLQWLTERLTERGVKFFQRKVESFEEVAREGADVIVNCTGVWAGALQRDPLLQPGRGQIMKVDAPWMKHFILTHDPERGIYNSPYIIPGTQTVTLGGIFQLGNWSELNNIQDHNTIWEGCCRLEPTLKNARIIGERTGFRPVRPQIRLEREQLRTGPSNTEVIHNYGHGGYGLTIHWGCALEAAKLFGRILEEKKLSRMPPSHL
Outline: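 D-serine substrate at 5 mM (Km), 50 mM sodium phosphate pH 7.4; H2O2 output coupled via 4 U/mL horseradish peroxidase and 50 μM Amplex Red to resorufin fluorescence. Reaction started with enzyme; H2O2 control checked coupling interference; IC50 from inhibition curves.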

| IC50 (Human DAAO) | SMILES | Cerebellum D-serine at 2 hours ([1]; dose 60 mg/kg) | Cerebellum D-serine at 6 hours ([1]; dose 60 mg/kg) | Cerebellum D-serine at 2 hours ([1]; dose 30 mg/kg) | Cerebellum D-serine at 6 hours ([1]; dose 30 mg/kg) |
| --- | --- | --- | --- | --- | --- |
| ≤ 0.1 µM | N#Cc1cccc(C2CCc3[nH]c(C(=O)O)cc32)c1 (centres unmarked) [Compound 105, 4-(3-cyanophenyl)-1,4,5,6-tetrahydrocyclopenta[b]pyrrole-2-carboxylic acid] | (−) (<2.5 = (−)) | – | – | – |
| ≤ 0.1 µM | O=C(O)c1cc2c([nH]1)C(Cc1cc(F)cc(Cl)c1)CC2 (centres unmarked) [Compound 124, 6-(3-chloro-5-fluorobenzyl)-1,4,5,6-tetrahydrocyclopenta[b]pyrrole-2-carboxylic acid] | (−) (<2.5 = (−)) | (−) (<2.5 = (−)) | – | – |
| > 100 µM | CCOC(=O)c1[nH]c2c(c1O)CCC2 [Compound 137, ethyl 3-hydroxy-1,4,5,6-tetrahydrocyclopenta[b]pyrrole-2-carboxylate] | – | – | (+) (2.5-4.9 = (+)) | (+) (2.5-4.9 = (+)) |
| ≤ 0.1 µM | O=C(O)c1cc2c([nH]1)[C@@H]1C[C@@H]1C2 [Compound 146, (1aR,5aR)-1a,2,5,5a-tetrahydro-1H-2-aza-cyclopropa[α]pentalene-3-carboxylic acid] | (++) (>5 = (++)) | (++) (>5 = (++)) | – | – |
